The text below walks through data of patent publication EP2951180B1, “2,6,7,8 SUBSTITUTED PURINES AS HDM2 INHIBITORS” (Merck Sharp & Dohme Corp., priority 2013, dated 2014).

By IC50 is commonly meant the concentration needed to halve the response being measured. The low end stands for higher potency, the high end for lower potency.

The target of the first assay is T1, HDM2 (Homo sapiens, UniProt Q00987).
T1 construct: Thioredoxin (N); made in house; host or cells: E. coli strain BL21(DE3)Rosetta
T1 sequence (Q00987 17-125): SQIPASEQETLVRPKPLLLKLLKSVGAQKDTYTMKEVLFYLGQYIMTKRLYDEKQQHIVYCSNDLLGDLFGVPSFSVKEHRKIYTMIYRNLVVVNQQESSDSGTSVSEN
Briefly: FRET assay (HDM2 inhibition; method not described in this part). Format: binding. Particulars: Table 1.
Regarding `C[C@@H](Nc1nc(C(=O)O)nc2nc(-c3ccc(-c4ccccc4)cc3)n(Cc3ccc(C(F)(F)F)cc3)c12)C1CCC1` [Example 1.109, 8-biphenyl-4-yl-6-{[(1R)-1-cyclobutylethyl]amino}-7-[4-(trifluoromethyl)benzyl]-7H-purine-2-carboxylic acid], half-maximal inhibition (IC50) required 473 nM.

For `C[C@@H](Nc1nc(C(=O)O)nc2nc(-c3ncccc3C(F)(F)F)n(Cc3ccc(C(F)(F)F)cc3)c12)C1CCC1` [Example 1.135, 6-{[(1R)-1-cyclobutylethyl]amino}-7-[4-(trifluoromethyl)benzyl]-8-[3-(trifluoromethyl)pyridin-2-yl]-7H-purine-2-carboxylic acid], 47.9 nM corresponded to half-maximal inhibition (IC50). Against the preceding compound, the IC50 is about 9.9-fold lower.

Turning to `COc1ccnc(-c2nc3nc(C(=O)O)nc(N[C@H](C)C4CCC4)c3n2Cc2ccc(C(F)(F)F)cc2)c1C` [Example 1.74, 6-{[(1R)-1-cyclobutylethyl]amino}-8-(4-methoxy-3-methylpyridin-2-yl)-7-[4-(trifluoromethyl)benzyl]-7H-purine-2-carboxylic acid], the IC50 is 72.5 nM.

Compound `C[C@@H](Nc1nc(C(=O)O)nc2nc(-c3cc(OC4CCC4)ccn3)n(Cc3ccc(C(F)(F)F)cc3)c12)C1CCC1` [Example 1.45, 6-{[(1R)-1-cyclobutylethyl]amino}-8-[4-(cyclobutyloxy)pyridin-2-yl]-7-[4-(trifluoromethyl)benzyl]-7H-purine-2-carboxylic acid] displayed an IC50 of 50.8 nM. This IC50 and that of the compound before are within 1.5-fold of each other.

With `C[C@@H](Nc1nc(C(=O)O)nc2nc(-c3ccc(C4OCCO4)cn3)n(Cc3ccc(C(F)(F)F)cc3)c12)C1CCC1` [Example 1.65, 6-{[(1R)-1-cyclobutylethyl]amino}-8-[5-(1,3-dioxolan-2-yl)pyridin-2-yl]-7-[4-(trifluoromethyl)benzyl]-7H-purine-2-carboxylic acid], the IC50 is 62.2 nM.

In turn, `C[C@@H](Nc1nc(C(=O)O)nc2nc(-c3cccc(C(N)=O)c3)n(Cc3ccc(C(F)(F)F)cc3)c12)C1CCC1` [Example 1.37, 8-(3-carbamoylphenyl)-6-{[(1R)-1-cyclobutylethyl]amino}-7-[4-(trifluoromethyl)benzyl]-7H-purine-2-carboxylic acid] displayed a concentration for half-maximal inhibition (IC50) of 49.4 nM.

In the case of `COc1cc(C)cc(-c2nc3nc(C(=O)O)nc(N[C@H](C)C4CCC4)c3n2Cc2ccc(C(F)(F)F)cc2)c1` [Example 1.123, 6-{[(1R)-1-cyclobutylethyl]amino}-8-(3-methoxy-5-methylphenyl)-7-[4-(trifluoromethyl)benzyl]-7H-purine-2-carboxylic acid], the midpoint of inhibition, the IC50, lay at 53.6 nM.

As to `C[C@@H](Nc1nc(C(=O)O)nc2nc(-c3ccc4nccnc4c3)n(Cc3ccc(C(F)(F)F)cc3)c12)C1CCC1` [Example 1.106, 6-{[(1R)-1-cyclobutylethyl]amino}-8-quinoxalin-6-yl-7-[4-(trifluoromethyl)benzyl]-7H-purine-2-carboxylic acid], half-maximal inhibition (IC50) was put at 23.5 nM.

The assay is the same for the next values; noted with them: Table 2.
Turning to `C[C@@H](Nc1nc(C(=O)O)nc2nc(-c3cccc(Cl)c3)n(Cc3ccc(C(F)(F)F)cc3)c12)C1CCC1` [Example 2.40, 8-(3-chlorophenyl)-6-{[(1R)-1-cyclobutylethyl]amino}-7-[4-(trifluoromethyl)benzyl]-7H-purine-2-carboxylic acid], the IC50 was found to be 30 nM.

Turning to `C[C@@H](Nc1nc(C(=O)O)nc2nc(-c3cnn(C)c3)n(Cc3ccc(C(F)(F)F)cc3)c12)C1CC1` [Example 2.35, 6-{[(1R)-1-cyclopropylethyl]amino}-8-(1-methyl-1H-pyrazol-4-yl)-7-[4-(trifluoromethyl)benzyl]-7H-purine-2-carboxylic acid], inhibition was half-maximal at 510 nM (IC50).

Turning to `C[C@@H](Nc1nc(C(=O)O)nc2nc(-c3ccc(F)c(Cl)c3)n(Cc3ccc(C(F)(F)F)cc3)c12)C1CCC1` [Example 2.61, 8-(3-chloro-4-fluorophenyl)-6-{ [(1R)-1-cyclobutylethyl]amino}-7-[4-(trifluoromethyl)benzyl]-7H-purine-2-carboxylic acid], the IC50 amounted to 22.7 nM.

Consider `CCc1ccc(OC)cc1-c1nc2nc(C(=O)O)nc(N[C@H](C)C3CCC3)c2n1Cc1ccc(C(F)(F)F)cc1` [Example 2.80, 6-{[(1R)-1-cyclobutylethyl]amino} -8-(2-ethyl-5-methoxyphenyl)-7-[4-(trifluoromethyl)benzyl]-7H-purine-2-carboxylic acid], for which the half-maximal inhibitory concentration (IC50) worked out at 11.1 nM. This IC50 lies about 2-fold lower than the previous one.

In the case of `C[C@@H](Nc1nc(C(=O)O)nc2nc(-c3ccc(Cl)c(F)c3)n(Cc3ccc(C(F)(F)F)cc3)c12)C1CC1` [Example 2.53, 8-(4-chloro-3-fluorophenyl)-6-{[(1R)-1-cyclopropylethyl]amino}-7-[4-(trifluoromethyl)benzyl]-7H-purine-2-carboxylic acid], the half-inhibitory concentration (IC50) is 200 nM.

`C[C@@H](Nc1nc(C(=O)O)nc2nc(-c3cccc(C(C)(C)C)c3)n(Cc3ccc(C(F)(F)F)cc3)c12)C1CC1` [Example 2.19, 8-(3-tert-butylphenyl)-6-{[(1R)-1-cyclopropylethyl]amino}-7-[4-(trifluoromethyl)benzyl]-7H-purine-2-carboxylic acid] registered an IC50 of 145 nM.

`CNS(=O)(=O)c1ccc(-c2nc3nc(C(=O)O)nc(N[C@H](C)C4CCC4)c3n2Cc2ccc(C(F)(F)F)cc2)cc1` [Example 2.41, 6-{[(1R)-1-cyclobutylethyl]amino}-8-[4-(methylsulfamoyl)phenyl]-7-[4-(trifluoromethyl)benzyl]-7H-purine-2-carboxylic acid] showed an IC50 of 44 nM.

Turning to `Cc1cc(C2CC2)ccc1-c1nc2nc(C(=O)O)nc(N[C@H](C)C3CCC3)c2n1Cc1ccc(C(F)(F)F)cc1` [Example 2.2, (R)-6-((1-cyclobutylethyl)amino)-8-(4-cyclopropyl-2-methylphenyl)-7-(4-(trifluoromethyl)benzyl)-7H-purine-2-carboxylic acid], the IC50 came out at 151 nM. This IC50 lies about 3.4-fold higher than the previous one.

Staying with this assay, now noted: Table 4.
Compound `Cc1ccc(OCCCO)c(-c2nc3nc(C(=O)O)nc(N[C@H](C)C4CC4)c3n2Cc2ccc(C#N)cc2)c1` [Example 4.16, (R)-7-(4-cyanobenzyl)-6-((1-cyclopropylethyl)amino)-8-(2-(3-hydroxypropoxy)-5-methylphenyl)-7H-purine-2-carboxylic acid] yielded an IC50 of 481 nM.

In turn, `CCOc1ccc(C)cc1-c1nc2nc(C(=O)O)nc(N[C@H](C)C3CC3)c2n1Cc1ccc(Cl)cc1` [Example 4.7, (R)-7-(4-chlorobenzyl)-6-((1-cyclopropylethyl)amino)-8-(2-ethoxy-5-methylphenyl)-7H-purine-2-carboxylic acid] displayed an IC50 of 123 nM. Against the preceding compound, the IC50 is about 3.9-fold lower.

For the compound `Cc1ccc(OCC(O)CO)c(-c2nc3nc(C(=O)O)nc(N[C@H](C)C4CC4)c3n2Cc2ccc(Cl)cc2)c1` (stereo partly drawn) [Example 4.19, 7-(4-chlorobenzyl)-6-(((R)-1-cyclopropylethyl)amino)-8-(2-(2,3-dihydroxypropoxy)-5-methylphenyl)-7H-purine-2-carboxylic acid], the IC50 was determined as 586 nM.

The assay is the same for the next values; noted with them: Table 5.
In turn, `CCOc1ccccc1Cn1c(-c2cccc(C)c2)nc2nc(C(=O)O)nc(N[C@H](C)C3CCC3)c21` [Example 5.6, 6-{[(1R)-1-cyclobutylethyl]amino}-7-(2-ethoxybenzyl)-8-(3-methylphenyl)-7H-purine-2-carboxylic acid] registered a concentration for half-maximal inhibition (IC50) of 1840 nM.

Compound `Cc1cccc(-c2nc3nc(C(=O)O)nc(N[C@H](C)C4CC4)c3n2Cc2ccc(C(C)C)cc2)c1` [Example 5.7, 6-{[(1R)-1-cyclopropylethyl]amino}-7-[4-(1-methylethyl)benzyl]-8-(3-methylphenyl)-7H-purine-2-carboxylic acid] registered a half-maximal inhibitory concentration (IC50) of 3550 nM.
